The source made the active and inactive calls. The calls are words filed in the database; no cut-off is given here.
What was measured:
[1] = system: MV4-11; experiment: Anti-cancer activity against human MV4-11 cells assessed as reduction in HoxA9 mRNA level upto 100 uM by qRT-PCR analysis; format: functional, cell-based
[2] = system: MV4-11; experiment: Anti-cancer activity against human MV4-11 cells assessed as reduction in Meis1 mRNA level upto 100 uM by qRT-PCR analysis; format: functional, cell-based
[3] = system: MOLM-13; experiment: Anti-cancer activity against human MOLM-13 cells assessed as reduction in Meis1 mRNA level upto 100 uM by qRT-PCR analysis relative to control; format: functional; parameters: scale not given: the % may be the effect or the level left; details: up to 100 µM
[4] = system: MOLM-13; experiment: Induction of cell differentiation in human MOLM-13 cells assessed as increase in CD11b level upto 400 uM incubated for 7 days […]; format: functional, cell-based; details: time 7.0 day
[5] = system: MV4-11; experiment: Induction of cell differentiation in human MV4-11 cells assessed as increase in CD11b level upto 400 uM incubated for 7 days […]; format: functional, cell-based; details: time 7.0 day
[6] = system: MOLM-13; experiment: Induction of cell differentiation in human MOLM-13 cells assessed as CD11b level at 10 uM incubated for 3 days by Annexin V staining based flow cytometry (reference value: 13.77 %); format: functional; details: time 3 day
[7] = system: MV4-11; experiment: Induction of cell differentiation in human MV4-11 cells assessed as CD11b level at 10 uM incubated for 3 days by Annexin V staining based flow cytometry (reference value: 8.58 %); format: functional; details: time 3 day
[8] = system: MV4-11; experiment: Induction of cell differentiation in human MV4-11 cells assessed as CD11b level at 30 uM incubated for 3 days by Annexin V staining based flow cytometry (reference value: 8.58 %); format: functional; details: time 3 day
[9] = system: MV4-11; experiment: Antitumor activity against human MV4-11 cells xenografted in NOD-SCID mouse assessed as decrease in leukemic cells in blood at 50 mg/kg, sc measured after 33 days relative to control; format: functional; parameters: scale not given: the % may be the effect or the level left; details: time 33 day
[10] = system: MOLM-13; experiment: Induction of apoptosis in human MOLM-13 cells assessed as viable cells at 10 uM incubated for 3 days by Annexin V staining based flow cytometry (reference value: 90.54 %); format: functional; details: MOLM-13, 72 h, time 3 day, read-out: Activity
[11] = system: MOLM-13; experiment: Induction of apoptosis in human MOLM-13 cells assessed as early apoptotic cells at 10 uM incubated for 3 days by Annexin V staining based flow cytometry (reference value: 4.94 %); format: functional; details: time 3 day
[12] = system: MOLM-13; experiment: Induction of apoptosis in human MOLM-13 cells assessed as late apoptotic cells at 10 uM incubated for 3 days by Annexin V staining based flow cytometry (reference value: 3.29 %); format: functional; details: time 3 day
[13] = system: MOLM-13; experiment: Induction of apoptosis in human MOLM-13 cells assessed as viable cells at 30 uM incubated for 3 days by Annexin V staining based flow cytometry (reference value: 90.54 %); format: functional; details: MOLM-13, 72 h, time 3 day, read-out: Activity
[14] = system: MOLM-13; experiment: Induction of apoptosis in human MOLM-13 cells assessed as early apoptotic cells at 30 uM incubated for 3 days by Annexin V staining based flow cytometry (reference value: 4.94 %); format: functional; details: time 3 day
[15] = system: MOLM-13; experiment: Induction of apoptosis in human MOLM-13 cells assessed as necrotic cells at 30 uM incubated for 3 days by Annexin V staining based flow cytometry (reference value: 1.23 %); format: functional; details: time 3 day
[16] = system: MOLM-13; experiment: Induction of apoptosis in human MOLM-13 cells assessed as viable cells at 100 uM incubated for 3 days by Annexin V staining based flow cytometry (reference value: 90.54 %); format: functional; details: MOLM-13, 72 h, time 3 day, read-out: Activity
[17] = system: MOLM-13; experiment: Induction of apoptosis in human MOLM-13 cells assessed as early apoptotic cells at 100 uM incubated for 3 days by Annexin V staining based flow cytometry (reference value: 4.94 %); format: functional; details: time 3 day
[18] = system: MV4-11; experiment: Induction of apoptosis in human MV4-11 cells assessed as viable cells at 10 uM incubated for 3 days by Annexin V staining based flow cytometry (reference value: 89.63 %); format: functional; details: MV4-11, 72 h, time 3 day, read-out: Activity
[19] = system: MV4-11; experiment: Induction of apoptosis in human MV4-11 cells assessed as late apoptotic cells at 10 uM incubated for 3 days by Annexin V staining based flow cytometry (reference value: 7.29 %); format: functional; details: time 3 day
[20] = system: MV4-11; experiment: Induction of apoptosis in human MV4-11 cells assessed as necrotic cells at 10 uM incubated for 3 days by Annexin V staining based flow cytometry (reference value: 2.45 %); format: functional; details: time 3 day
[21] = system: MV4-11; experiment: Induction of apoptosis in human MV4-11 cells assessed as viable cells at 30 uM incubated for 3 days by Annexin V staining based flow cytometry (reference value: 89.63 %); format: functional; details: MV4-11, 72 h, time 3 day, read-out: Activity
[22] = system: MOLM-13; experiment: Induction of apoptosis in human MOLM-13 cells assessed as increase in p53 level upto 100 uM incubated for 3 days by Western blot analysis; format: functional, cell-based; details: time 3.0 day
[23] = system: MV4-11; experiment: Antitumor activity against human MV4-11 cells xenografted in NOD-SCID mouse assessed as decrease in leukemic cells in spleen at 50 mg/kg, sc measured after 33 days relative to control; format: functional; parameters: scale not given: the % may be the effect or the level left; details: time 33 day
[24] = system: MV4-11; experiment: Antitumor activity against human MV4-11 cells xenografted in NOD-SCID mouse assessed as decrease in leukemic cells in spleen at 78.7 mg/kg, sc measured after 33 days relative to control; format: functional; parameters: scale not given: the % may be the effect or the level left; details: time 33 day
[25] = system: MV4-11; experiment: Anti-invasive activity against human MV4-11 cells xenografted in NOD-SCID mouse assessed as reduction in tumor formation in ovarian tissue at 50 mg/kg, sc measured after 33 days; format: functional, organism-based; details: time 33.0 day
[26] = system: MV4-11; experiment: Anti-invasive activity against human MV4-11 cells xenografted in NOD-SCID mouse assessed as reduction in tumor formation in ovarian tissue at 78.7 mg/kg, sc measured after 33 days; format: functional, organism-based; details: time 33.0 day
[27] = Toxicity in NOD-SCID mouse xenografted with human MV4-11 cells assessed as body weight reduction at 50 to 78.7 mg/kg, sc measured after 33 days; format: organism-based; parameters: scale not given: the % may be the effect or the level left; details: in vivo, 792 h, dose 50-78.7 mg/kg, time 33 day
[28] = Toxicity in NOD-SCID mouse xenografted with human MV4-11 cells assessed as hunch-back posture at 50 to 78.7 mg/kg, sc measured after 33 days; format: organism-based; details: in vivo, 792 h, dose 50-78.7 mg/kg, time 33 day

With `O=C(O)C(F)(F)F.O=[N+]([O-])c1ccc(C2NCCc3cc(O)c(O)cc32)cc1` (stereo not drawn) the Activity [1] was “Active”, the Activity [2] was “Active” and the Activity [3] was ~60%. For the same compound, the Activity [4] was “Active”, the Activity [5] was “Active” and the Activity [6] was 29.35%. The Activity [7] was 14.39%, the Activity [8] was 34.78% and the Activity [9] was 35%. For the same compound, the viability at 10 µM [10] was 76.6%, the Activity [11] was 7.17% and the Activity [12] was 9.88%. The viability at 30 µM [13] was 61.5%, the Activity [14] was 7.55% and the Activity [15] was 14.95%. It also gave a viability at 100 µM [16] of 56%, an Activity [17] of 9.46% and a viability at 10 µM [18] of 66.2%. It also gave an Activity [19] of 22.73%, an Activity [20] of 4.05% and a viability at 30 µM [21] of 57.8%. For the same compound, the Activity [22] was “Active”, the Activity [23] was 32% and the Activity [24] was 87%. The Activity [25] was “inactive”, the Activity [26] was “Active” and the Activity [27] was > 20%. The Activity [28] was “Toxic”.
